Test results reported in ChEMBL document CHEMBL1201862, “PubChem BioAssay data set” (2004).
Calls of active or inactive are those of the source.

How the values were obtained:
[1] = molecular target: UDP-galactopyranose mutase (Mycobacterium tuberculosis, UniProt P9WIQ1); assay: Inhibitors of Mycobacterium tuberculosis UDP-galactopyranose mutase (UGM) enzyme Measured in Biochemical System Using Plate Reader - 2105-02_Inhibitor_Dose_CherryPick_Activity. [Related pubchem assays (depositor defined):AID504439]
[2] = viability of uninfected HEp-2 cells – cell-based, HTS, cytotoxicity control for RSV inhibitor project, dose response (AID 2410); format: functional; settings: human respiratory syncytial virus
[3] = Luminescence Cell-Based Dose Confirmation HTS to Identify Activators of 5'UTR Stem-Loop Driven Alpha-Synuclein mRNA Translation in H4 Neuroglioblastoma Cells. [Related pubchem assays: 1829 (Project Summary), 1814 (Primary HTS)]; format: functional
[4] = Luminescence Cell-Based Dose Response HTS to Identify Activators of Luciferase Translation or Activity in H4 […] Cells. [Related pubchem assays: 1829 (Project Summary), 1814 (Primary HTS)]; format: functional
H4 = assay: Luminescence Cell-Based Dose Response HTS to Identify Activators of 5'UTR Stem-Loop Driven Prion Protein mRNA Translation in H4 Neuroglioblastoma Cells. [Related pubchem assays: 1829 (Project Summary), 1814 (Primary HTS)]; format: functional; settings: Homo sapiens
[5] = microbe, parasite or virus in culture; format: functional; settings: Mycobacterium tuberculosis
Exodeoxyribonuclease V = molecular target: T1, Exodeoxyribonuclease V (Escherichia coli (strain K12), UniProt P04993+P07648+P08394); assay: RecBCD inhibition via phage-restricted bacterial growth – absorbance, V66 E. coli, mutant T4 phage, counter-screen for AddAB inhibitor project, dose response (AID 492957); format: functional, cell-based, Escherichia coli str. K-12 substr. MG1655
T1 sequence (P04993 whole entry): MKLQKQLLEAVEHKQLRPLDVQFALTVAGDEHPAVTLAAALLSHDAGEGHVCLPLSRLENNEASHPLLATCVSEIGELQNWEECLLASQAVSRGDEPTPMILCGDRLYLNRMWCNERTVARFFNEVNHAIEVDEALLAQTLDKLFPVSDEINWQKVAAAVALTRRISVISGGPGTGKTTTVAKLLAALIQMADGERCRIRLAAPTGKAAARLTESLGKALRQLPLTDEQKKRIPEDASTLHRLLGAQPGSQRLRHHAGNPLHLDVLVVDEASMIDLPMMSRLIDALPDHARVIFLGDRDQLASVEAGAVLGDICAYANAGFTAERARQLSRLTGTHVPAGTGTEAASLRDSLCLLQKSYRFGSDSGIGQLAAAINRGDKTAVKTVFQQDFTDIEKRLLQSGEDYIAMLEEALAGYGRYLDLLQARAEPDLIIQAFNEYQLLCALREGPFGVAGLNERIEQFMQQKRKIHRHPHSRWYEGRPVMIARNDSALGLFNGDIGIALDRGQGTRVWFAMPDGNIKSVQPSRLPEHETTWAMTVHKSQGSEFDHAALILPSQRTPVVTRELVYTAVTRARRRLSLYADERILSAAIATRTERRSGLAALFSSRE
T1 sequence (P07648 whole entry): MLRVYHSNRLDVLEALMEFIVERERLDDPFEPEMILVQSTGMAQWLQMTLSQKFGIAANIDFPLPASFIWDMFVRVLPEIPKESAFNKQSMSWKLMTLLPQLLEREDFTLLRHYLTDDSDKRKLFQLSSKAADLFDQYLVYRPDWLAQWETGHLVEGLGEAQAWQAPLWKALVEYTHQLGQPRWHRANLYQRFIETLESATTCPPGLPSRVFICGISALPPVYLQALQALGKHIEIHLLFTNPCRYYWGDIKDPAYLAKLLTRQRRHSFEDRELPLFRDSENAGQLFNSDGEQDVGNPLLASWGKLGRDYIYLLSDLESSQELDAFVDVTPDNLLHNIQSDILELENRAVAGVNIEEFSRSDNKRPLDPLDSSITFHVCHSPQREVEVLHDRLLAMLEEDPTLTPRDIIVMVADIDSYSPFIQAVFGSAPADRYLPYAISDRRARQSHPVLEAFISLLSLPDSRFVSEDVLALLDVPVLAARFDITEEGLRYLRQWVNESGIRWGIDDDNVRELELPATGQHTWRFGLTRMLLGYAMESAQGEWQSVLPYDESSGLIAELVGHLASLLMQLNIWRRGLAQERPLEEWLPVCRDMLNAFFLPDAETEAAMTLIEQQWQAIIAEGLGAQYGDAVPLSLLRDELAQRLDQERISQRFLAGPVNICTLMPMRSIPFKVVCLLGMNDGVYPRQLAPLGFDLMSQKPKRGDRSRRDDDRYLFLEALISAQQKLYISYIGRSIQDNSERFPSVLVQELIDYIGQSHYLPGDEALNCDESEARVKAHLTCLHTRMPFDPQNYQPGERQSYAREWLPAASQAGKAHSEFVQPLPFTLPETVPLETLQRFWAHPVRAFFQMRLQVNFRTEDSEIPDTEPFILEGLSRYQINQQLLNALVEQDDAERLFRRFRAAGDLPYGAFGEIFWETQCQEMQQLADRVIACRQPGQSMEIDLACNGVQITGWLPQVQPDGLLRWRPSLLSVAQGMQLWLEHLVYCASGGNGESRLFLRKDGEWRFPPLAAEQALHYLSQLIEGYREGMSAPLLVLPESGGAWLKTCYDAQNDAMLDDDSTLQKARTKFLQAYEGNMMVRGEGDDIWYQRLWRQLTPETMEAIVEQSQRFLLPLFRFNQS
T1 sequence (P08394 whole entry): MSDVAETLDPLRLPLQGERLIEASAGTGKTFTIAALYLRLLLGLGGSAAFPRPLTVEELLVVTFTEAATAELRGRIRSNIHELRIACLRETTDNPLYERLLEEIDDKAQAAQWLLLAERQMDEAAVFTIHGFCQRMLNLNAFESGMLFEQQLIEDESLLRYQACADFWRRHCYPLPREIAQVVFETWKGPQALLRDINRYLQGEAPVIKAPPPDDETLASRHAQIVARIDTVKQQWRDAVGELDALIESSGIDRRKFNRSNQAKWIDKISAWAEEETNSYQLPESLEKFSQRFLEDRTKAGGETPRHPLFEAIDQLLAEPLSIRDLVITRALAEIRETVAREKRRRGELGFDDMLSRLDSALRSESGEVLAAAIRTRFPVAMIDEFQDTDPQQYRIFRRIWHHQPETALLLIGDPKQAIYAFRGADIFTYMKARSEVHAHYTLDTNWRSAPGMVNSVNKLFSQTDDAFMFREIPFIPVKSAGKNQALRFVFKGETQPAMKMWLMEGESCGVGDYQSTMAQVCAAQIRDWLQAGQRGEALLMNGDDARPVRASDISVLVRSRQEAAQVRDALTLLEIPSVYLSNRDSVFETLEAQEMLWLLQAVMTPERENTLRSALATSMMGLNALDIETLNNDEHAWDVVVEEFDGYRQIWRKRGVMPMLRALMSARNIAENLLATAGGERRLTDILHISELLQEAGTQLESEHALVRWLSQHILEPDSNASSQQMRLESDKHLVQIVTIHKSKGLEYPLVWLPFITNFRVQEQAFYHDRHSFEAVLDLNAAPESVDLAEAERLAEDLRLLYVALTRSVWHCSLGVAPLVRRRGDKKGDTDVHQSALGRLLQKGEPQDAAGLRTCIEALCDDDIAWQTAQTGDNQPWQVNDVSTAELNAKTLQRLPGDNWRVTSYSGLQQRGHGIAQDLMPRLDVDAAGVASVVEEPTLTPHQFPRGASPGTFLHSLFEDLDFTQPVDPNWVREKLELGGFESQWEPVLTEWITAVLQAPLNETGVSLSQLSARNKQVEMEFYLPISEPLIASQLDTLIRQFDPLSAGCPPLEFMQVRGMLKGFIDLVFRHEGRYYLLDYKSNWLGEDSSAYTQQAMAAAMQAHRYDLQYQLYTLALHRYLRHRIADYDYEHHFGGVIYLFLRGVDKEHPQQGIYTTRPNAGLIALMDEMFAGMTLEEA

[6] = Counterscreen for AddAB inhibitors: absorbance-based bacterial cell-based high throughput dose response assay for inhibitors of bacterial viability. [Related pubchem assays (depositor defined):AID435030, AID449728, AID449731, AID488942, AID488955, AID488956]; format: functional
HEK293 = assay: cells; format: functional, cell-based; settings: Homo sapiens
[7] = molecular target: T2, Nuclear receptor subfamily 0 group B member 1 (Homo sapiens, UniProt P51843); assay: Luminescence-based cell-based high throughput dose response assay for inhibitors of the orphan nuclear receptor subfamily 0, group B, member 1 (DAX1; NR0B1). [Related pubchem assays (depositor defined):AID504766, AID504790]; format: functional
T2 sequence (P51843 whole entry): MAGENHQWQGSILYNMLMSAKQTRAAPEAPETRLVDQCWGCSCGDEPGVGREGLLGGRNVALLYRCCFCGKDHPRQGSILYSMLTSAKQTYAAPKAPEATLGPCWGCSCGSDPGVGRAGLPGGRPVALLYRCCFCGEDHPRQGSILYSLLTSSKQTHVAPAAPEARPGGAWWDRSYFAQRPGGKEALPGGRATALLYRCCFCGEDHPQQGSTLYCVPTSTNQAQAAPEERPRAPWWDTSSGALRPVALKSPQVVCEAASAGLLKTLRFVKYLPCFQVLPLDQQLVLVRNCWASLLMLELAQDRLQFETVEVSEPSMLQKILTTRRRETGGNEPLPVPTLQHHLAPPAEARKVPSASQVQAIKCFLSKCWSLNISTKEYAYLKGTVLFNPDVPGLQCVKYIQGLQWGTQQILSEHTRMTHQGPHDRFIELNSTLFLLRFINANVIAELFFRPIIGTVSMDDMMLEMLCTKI

Cytochrome P450 2C19 = Cytochrome P450 2C19 (Homo sapiens, UniProt P33261); assay: Cytochrome panel assay with activity outcomes. Panel member name: p450-cyp2c19 Compounds with AC50 equal or less than 10 uM are considered active; format: functional; settings: read-out: AC50
CHO = CHO cell viability loss, potency – luminescence, cytotoxicity control for TLR9-MyD88 binding inhibitor project, dose response (AID 588339); format: functional, cell-based, hamster; settings: Cricetulus griseus;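 also: CHO cells stably coexpressing TLR9 and MyD88 fusions from primary screen; compound exposure lasted 48 hours before viability readout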
Beta Lactamase = Beta Lactamase (Pseudomonas aeruginosa, UniProt Q932Y6); assay: BLA reporter interference, concentration series – BLA reporter cells, FRET fluorescence, artefact control for TLR9-MyD88 binding inhibitor project, dose response (AID 588341); format: cell-based;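 also: cell based assay in CHO-K1 cells stably expressing beta-lactamase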
Cytochrome P450 3A4 = Cytochrome P450 3A4 (Homo sapiens, UniProt P08684);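 also: CYP3A4 tested as one member of a cytochrome P450 panel screen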
[8] = molecular target: Glucose-6-phosphate 1-dehydrogenase (Homo sapiens, UniProt P11413); assay: inhibition of Homo sapiens G6PD, dose series – biochemical, fluorescence, selectivity assay for P. falciparum G6PD inhibitor project, dose response (AID 504792); format: functional
Genome polyprotein = Genome polyprotein (dengue virus type 2, UniProt P29990); assay: flavivirus cap methylation enzyme inhibition – biochemical, confirmation dose response, primary screen (AID 588689); format: functional
[9] = THP-1 cell cytotoxicity, dose response, cytotoxicity control for non-replicating M. tuberculosis project (AID 489025); format: functional
[10] = molecular target: T3, Microphthalmia-associated transcription factor (Homo sapiens, UniProt O75030); assay: reducers of TRPM1 reporter luminescence, concentration series – cell-based, SK-MEL-5, cherry-picked, set 3, MITF inhibitor project, dose response (AID 493073); format: functional;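 also: SK-MEL-5 melanoma cells with luciferase driven by the MITF target TRPM1 promoter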
T3 sequence (O75030 whole entry): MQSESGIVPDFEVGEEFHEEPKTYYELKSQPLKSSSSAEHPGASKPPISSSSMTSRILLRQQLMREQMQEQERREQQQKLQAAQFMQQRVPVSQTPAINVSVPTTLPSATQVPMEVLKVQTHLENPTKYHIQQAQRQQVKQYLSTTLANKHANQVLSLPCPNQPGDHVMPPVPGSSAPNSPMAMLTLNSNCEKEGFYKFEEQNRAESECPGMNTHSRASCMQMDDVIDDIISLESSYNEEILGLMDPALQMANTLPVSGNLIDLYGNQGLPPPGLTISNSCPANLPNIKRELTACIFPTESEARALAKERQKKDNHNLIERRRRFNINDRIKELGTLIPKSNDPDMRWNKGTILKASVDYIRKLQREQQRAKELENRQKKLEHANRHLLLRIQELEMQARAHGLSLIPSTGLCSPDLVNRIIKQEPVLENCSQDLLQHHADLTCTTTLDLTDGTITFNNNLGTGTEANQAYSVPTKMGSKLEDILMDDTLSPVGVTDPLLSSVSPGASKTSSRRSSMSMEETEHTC

cells = format: functional

UDP-galactopyranose mutase, sequence (P9WIQ1 whole entry): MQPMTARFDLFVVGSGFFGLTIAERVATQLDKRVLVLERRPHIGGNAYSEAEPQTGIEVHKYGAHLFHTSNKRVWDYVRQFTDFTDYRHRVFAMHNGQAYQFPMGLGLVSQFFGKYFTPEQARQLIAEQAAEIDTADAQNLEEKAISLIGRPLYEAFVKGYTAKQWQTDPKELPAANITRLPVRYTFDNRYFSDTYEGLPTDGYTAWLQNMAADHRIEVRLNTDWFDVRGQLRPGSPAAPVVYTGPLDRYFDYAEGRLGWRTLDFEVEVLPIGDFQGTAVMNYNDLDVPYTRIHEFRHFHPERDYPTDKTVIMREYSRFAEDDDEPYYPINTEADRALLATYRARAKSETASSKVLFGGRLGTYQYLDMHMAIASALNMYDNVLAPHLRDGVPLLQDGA
Glucose-6-phosphate 1-dehydrogenase, sequence (P11413 whole entry): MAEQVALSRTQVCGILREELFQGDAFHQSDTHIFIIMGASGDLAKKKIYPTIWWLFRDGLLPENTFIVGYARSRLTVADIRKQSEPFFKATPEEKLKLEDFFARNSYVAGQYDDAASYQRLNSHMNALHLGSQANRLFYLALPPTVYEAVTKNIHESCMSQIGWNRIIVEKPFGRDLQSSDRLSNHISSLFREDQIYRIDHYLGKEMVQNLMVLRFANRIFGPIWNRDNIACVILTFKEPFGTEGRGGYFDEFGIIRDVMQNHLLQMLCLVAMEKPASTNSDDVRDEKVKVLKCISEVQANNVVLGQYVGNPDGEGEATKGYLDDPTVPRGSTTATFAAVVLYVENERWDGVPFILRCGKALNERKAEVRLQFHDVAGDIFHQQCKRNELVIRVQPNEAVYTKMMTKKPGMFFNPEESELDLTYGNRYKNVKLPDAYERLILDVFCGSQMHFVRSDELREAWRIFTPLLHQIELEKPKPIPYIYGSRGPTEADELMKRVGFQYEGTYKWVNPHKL
Genome polyprotein, sequence (P29990 2492-3391 limits assumed): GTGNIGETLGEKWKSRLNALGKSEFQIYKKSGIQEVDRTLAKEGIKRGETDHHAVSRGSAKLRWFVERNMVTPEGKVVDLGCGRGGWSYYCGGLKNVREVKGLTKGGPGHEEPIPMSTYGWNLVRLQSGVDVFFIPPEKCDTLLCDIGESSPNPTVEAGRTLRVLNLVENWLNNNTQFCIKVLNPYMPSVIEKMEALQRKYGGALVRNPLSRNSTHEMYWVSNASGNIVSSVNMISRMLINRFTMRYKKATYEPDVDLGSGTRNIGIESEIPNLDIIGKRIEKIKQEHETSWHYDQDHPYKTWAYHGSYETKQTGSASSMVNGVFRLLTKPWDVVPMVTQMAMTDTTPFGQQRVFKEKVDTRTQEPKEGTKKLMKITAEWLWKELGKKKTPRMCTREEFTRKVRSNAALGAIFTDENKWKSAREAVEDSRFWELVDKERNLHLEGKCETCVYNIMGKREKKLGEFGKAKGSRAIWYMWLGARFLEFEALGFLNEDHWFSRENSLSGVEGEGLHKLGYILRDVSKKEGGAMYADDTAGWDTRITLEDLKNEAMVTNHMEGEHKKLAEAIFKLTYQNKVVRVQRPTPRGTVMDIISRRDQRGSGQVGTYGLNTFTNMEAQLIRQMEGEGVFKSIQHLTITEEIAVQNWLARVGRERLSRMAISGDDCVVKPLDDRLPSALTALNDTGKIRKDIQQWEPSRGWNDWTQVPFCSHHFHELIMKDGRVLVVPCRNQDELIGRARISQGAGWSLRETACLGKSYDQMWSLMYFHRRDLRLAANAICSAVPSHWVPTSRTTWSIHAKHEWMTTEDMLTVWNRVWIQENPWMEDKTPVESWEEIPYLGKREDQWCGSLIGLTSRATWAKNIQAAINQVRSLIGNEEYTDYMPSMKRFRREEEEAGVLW
Cytochrome P450 3A4, sequence (P08684 whole entry): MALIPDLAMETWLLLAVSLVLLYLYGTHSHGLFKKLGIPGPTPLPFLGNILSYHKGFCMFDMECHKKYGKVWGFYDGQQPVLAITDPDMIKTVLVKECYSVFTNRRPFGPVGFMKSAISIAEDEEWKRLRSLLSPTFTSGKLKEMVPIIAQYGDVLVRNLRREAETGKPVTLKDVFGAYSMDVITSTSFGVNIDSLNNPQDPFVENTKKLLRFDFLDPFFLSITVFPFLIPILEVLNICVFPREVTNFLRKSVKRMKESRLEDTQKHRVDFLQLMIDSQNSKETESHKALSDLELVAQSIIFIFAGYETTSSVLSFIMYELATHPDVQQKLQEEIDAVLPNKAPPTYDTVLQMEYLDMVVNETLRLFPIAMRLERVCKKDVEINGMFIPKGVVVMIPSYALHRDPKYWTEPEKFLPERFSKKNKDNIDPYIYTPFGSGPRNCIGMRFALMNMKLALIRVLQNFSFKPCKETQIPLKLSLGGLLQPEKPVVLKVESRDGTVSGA
Cytochrome P450 2C19, sequence (P33261 whole entry, the tested form may be a part): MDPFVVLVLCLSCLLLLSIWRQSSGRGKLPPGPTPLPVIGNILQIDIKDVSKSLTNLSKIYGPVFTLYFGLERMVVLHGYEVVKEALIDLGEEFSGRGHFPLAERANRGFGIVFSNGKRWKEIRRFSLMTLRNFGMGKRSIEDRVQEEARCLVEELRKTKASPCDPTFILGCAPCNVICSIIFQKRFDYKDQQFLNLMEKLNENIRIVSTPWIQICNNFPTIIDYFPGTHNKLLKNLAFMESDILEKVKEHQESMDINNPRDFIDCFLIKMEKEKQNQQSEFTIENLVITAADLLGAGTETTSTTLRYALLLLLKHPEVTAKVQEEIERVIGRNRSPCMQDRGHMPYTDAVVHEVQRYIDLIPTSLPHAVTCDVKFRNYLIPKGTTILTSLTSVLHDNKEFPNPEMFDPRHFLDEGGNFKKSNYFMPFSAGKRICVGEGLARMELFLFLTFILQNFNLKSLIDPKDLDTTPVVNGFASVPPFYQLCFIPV
Beta Lactamase, sequence (Q932Y6 whole entry): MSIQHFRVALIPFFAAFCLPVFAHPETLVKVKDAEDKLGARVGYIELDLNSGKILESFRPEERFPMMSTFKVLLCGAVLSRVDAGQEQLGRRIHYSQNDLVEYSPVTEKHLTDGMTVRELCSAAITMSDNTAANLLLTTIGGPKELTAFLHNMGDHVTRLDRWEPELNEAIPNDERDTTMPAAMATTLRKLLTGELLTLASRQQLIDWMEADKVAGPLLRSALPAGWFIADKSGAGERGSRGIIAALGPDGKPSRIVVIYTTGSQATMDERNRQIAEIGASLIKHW

Compound: CCN1C(=O)NC(=O)/C(=C\c2cn(CC(=O)N3CCCC3)c3ccccc23)C1=O
- AC50 [1]: 107 µM (active)

Compound: O=Nc1c2[nH]c3ccccc3[n+]([O-])c-2c2ccccc12
- CC50 [2]: 34.2 µM (active)
- EC50 [3]: 15.7 µM (active)
- EC50 [4]: 8.47 µM (active)
- EC50 (H4): 12.5 µM (inconclusive)
- CC50 [5]: > 40 µM (active)
- IC50 (Exodeoxyribonuclease V): > 119 µM (inactive)
- IC50 [6]: > 119 µM (inactive)

Compound: Clc1ccccc1-c1nnc(-c2cccs2)o1
- IC50 (HEK293): > 67.5 µM (inactive)
- IC50 [7]: > 67.5 µM (inactive)

Compound: Cc1cc(C)c(C)c(S(=O)(=O)N2CCN(C)CC2)c1C
- IC50 (HEK293): > 67.5 µM (inactive)
- IC50 [7]: > 67.5 µM (inactive)

Compound: O=C(OCCN1C(=O)c2cccc3c(N4CCOCC4)ccc(c23)C1=O)c1cccc(Cl)c1
- AC50 [1]: 19.2 µM (active)

Compound: N#Cc1sc2nc(-c3cccs3)cc(-c3ccc(Cl)cc3)c2c1N
- AC50 (Cytochrome P450 2C19): 3.98 µM (inconclusive)
- IC50 (CHO): > 49.7 µM (inactive)
- IC50 (Beta Lactamase): 4.74 µM (active)
- AC50 (Cytochrome P450 3A4): 1.41 µM (inconclusive)

Compound: CCS(=O)(=O)N1CCN(c2ccc([N+](=O)[O-])c(NC(C)c3ccccc3)c2)CC1 (configuration not stated)
- IC50 [8]: > 80 µM (inactive)

Compound: Cc1cc(O)c(C(C)C)cc1N=Cc1ccc(N(C)C)cc1
- IC50 [8]: 23.9 µM (inactive)
- IC50 (Genome polyprotein): > 100 µM (active)

Compound: COc1ccccc1NC(=O)CCC(=O)N/N=C(/C)c1ccc(C)cc1
- IC50 (HEK293): 46.9 µM (inactive)
- IC50 [7]: > 67.5 µM (inactive)

Compound: Cc1cc(C(=O)N/N=C/c2ccc([N+](=O)[O-])o2)c(C)o1
- IC50 (Exodeoxyribonuclease V): > 119 µM (inactive)
- CC50 [9]: 38.9 µM (active)
- IC50 [6]: > 119 µM (inactive)
- AC50 [10]: 4.79 µM (active)
- IC50 (cells): 1.89 µM (active)
